The values below come from ChEMBL document CHEMBL5344455, “Discovery and Characterization of Active CBP/EP300 Degraders Targeting the HAT Domain” (ACS Med Chem Lett, 2024).

Calls of active or inactive are those of the source. The calls are words filed in the database; no cut-off is given here. Bounds are passed on as bounds.

Experiment [1] has as its target von Hippel-Lindau disease tumor suppressor/CREB-binding protein (Homo sapiens) (UniProt Q92793+P40337). The experiment is described as follows: Protac activity at VHL/CBP in human LP-1 cells assessed as protein remaining at 5 uM after 16 hrs by Western blotting analysis. In kind it is cell-based. On the technique in general: Immunoblotting shows a protein as a band on a membrane.

In experiment [2] the target is von Hippel-Lindau disease tumor suppressor/Histone acetyltransferase p300 (Homo sapiens) (UniProt Q09472+P40337). The experiment in a line: Protac activity at VHL/EP300 in human LP-1 cells assessed as protein remaining at 5 uM after 16 hrs by Western blotting analysis. In kind it is cell-based.
Sequence of von Hippel-Lindau disease tumor suppressor/Histone acetyltransferase p300 (Homo sapiens) (P40337 whole entry, looked up): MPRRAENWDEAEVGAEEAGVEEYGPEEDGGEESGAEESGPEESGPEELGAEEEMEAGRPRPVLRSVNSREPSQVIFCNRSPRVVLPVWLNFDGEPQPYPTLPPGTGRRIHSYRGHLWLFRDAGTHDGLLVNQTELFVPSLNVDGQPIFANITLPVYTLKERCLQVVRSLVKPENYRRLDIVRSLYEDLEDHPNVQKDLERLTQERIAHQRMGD
Sequence of von Hippel-Lindau disease tumor suppressor/Histone acetyltransferase p300 (Homo sapiens) (Q09472 whole entry, looked up): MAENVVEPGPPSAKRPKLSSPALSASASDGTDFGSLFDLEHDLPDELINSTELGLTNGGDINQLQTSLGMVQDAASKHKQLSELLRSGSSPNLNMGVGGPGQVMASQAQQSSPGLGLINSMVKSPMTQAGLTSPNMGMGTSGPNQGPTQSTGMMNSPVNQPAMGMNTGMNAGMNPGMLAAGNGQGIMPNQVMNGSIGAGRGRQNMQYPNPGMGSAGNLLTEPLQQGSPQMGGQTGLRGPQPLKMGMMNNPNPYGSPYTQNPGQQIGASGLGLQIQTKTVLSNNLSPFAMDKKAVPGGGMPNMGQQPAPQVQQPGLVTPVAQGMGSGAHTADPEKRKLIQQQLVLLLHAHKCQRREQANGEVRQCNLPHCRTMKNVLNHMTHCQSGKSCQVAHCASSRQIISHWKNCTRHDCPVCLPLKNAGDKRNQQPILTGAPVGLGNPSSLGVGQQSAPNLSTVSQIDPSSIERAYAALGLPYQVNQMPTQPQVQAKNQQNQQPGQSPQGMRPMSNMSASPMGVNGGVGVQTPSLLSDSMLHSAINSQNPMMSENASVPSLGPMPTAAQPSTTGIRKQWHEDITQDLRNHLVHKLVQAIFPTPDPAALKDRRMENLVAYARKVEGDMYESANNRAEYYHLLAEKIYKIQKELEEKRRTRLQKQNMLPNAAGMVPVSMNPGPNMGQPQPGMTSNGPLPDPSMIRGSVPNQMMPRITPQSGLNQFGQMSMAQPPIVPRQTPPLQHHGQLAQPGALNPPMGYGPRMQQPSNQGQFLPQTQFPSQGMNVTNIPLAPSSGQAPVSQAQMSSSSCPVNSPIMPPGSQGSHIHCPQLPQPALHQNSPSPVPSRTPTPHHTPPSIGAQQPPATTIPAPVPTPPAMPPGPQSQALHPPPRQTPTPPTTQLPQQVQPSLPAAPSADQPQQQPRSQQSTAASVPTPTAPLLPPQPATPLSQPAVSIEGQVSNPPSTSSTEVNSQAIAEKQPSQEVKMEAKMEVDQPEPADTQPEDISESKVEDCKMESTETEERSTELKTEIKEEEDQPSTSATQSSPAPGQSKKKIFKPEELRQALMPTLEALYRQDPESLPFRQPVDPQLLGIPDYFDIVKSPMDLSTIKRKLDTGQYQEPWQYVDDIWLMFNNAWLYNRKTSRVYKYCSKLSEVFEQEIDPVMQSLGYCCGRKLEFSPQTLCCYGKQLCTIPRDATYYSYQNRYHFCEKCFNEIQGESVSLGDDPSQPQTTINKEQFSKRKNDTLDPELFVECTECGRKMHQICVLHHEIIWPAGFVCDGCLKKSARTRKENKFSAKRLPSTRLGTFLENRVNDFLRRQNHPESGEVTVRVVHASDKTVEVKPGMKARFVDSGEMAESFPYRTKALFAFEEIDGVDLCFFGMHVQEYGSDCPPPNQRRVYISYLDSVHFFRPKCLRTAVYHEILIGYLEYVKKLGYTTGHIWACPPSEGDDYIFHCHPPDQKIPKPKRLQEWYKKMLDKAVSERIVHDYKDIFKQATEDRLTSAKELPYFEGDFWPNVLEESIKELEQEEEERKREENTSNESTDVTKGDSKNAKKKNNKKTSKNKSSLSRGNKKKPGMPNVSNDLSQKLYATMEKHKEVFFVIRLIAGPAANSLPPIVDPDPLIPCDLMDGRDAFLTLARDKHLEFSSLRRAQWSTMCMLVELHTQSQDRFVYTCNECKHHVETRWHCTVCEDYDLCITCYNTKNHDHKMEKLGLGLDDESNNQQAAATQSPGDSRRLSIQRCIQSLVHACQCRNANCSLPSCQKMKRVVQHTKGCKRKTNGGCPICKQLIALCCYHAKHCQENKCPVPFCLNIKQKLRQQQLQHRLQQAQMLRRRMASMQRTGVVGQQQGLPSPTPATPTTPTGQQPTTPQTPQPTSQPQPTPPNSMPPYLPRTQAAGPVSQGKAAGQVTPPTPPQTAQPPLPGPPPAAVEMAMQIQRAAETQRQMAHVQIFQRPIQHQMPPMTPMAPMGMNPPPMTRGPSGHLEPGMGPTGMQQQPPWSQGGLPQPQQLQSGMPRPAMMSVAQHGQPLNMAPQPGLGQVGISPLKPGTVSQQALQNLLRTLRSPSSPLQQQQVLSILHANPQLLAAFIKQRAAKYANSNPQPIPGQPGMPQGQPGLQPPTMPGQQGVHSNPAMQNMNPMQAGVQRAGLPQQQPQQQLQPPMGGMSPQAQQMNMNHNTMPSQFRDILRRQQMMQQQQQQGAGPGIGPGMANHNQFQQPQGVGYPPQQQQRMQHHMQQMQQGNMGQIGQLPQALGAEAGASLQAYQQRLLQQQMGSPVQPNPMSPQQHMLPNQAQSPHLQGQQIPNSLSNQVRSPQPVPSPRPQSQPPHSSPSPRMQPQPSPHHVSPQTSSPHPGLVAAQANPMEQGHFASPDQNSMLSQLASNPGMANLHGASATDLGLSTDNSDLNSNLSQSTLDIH
In experiment [3] the test system is LP-1. The experiment is described as follows: Antiproliferative activity against human LP-1 cells assessed as growth inhibition incubated for 3 days by fluorescence based assay. In kind it is functional. The conditions noted are these: LP-1, 72 h, time 3 day.
Experiment [4] addresses T1, Protein cereblon/CREB-binding protein (Homo sapiens, UniProt Q92793+Q96SW2). The experiment in a line: Protac activity at CRBN/CBP degradation in human LP-1 cells assessed as induction of ternary complex formation by measuring fluorescent foci at 2 uM after 6 hrs by fluorescence microscopic analysis. In kind it is cell-based.
Experiment [5] deals with LP-1. The experiment is described as follows: Protac activity at IAP/CBP in human LP-1 cells assessed as protein remaining at 5 uM after 16 hrs by Western blotting analysis. In kind it is cell-based.
For experiment [6], the system named is LP-1. The experiment in a line: Protac activity at IAP/EP300 in human LP-1 cells assessed as protein remaining at 5 uM after 16 hrs by Western blotting analysis. In kind it is cell-based.
A further experiment has as its target CREB-binding protein (Homo sapiens, UniProt Q92793). The experiment is described as follows: Inhibition of CBP (unknown origin) by radiometric assay.
In experiment [7] the target is T1, Protein cereblon/CREB-binding protein. The experiment in a line: Protac activity at CRBN/CBP in human LP-1 cells assessed as protein remaining at 5 uM after 16 hrs by Western blotting analysis. In kind it is cell-based.
Experiment [8] has as its target T2, Protein cereblon/Histone acetyltransferase p300 (Homo sapiens) (UniProt Q09472+Q96SW2). The experiment in a line: Protac activity at CRBN/EP300 in human LP-1 cells assessed as protein remaining at 5 uM after 16 hrs by Western blotting analysis. In kind it is cell-based.
The target in experiment [9] is T1, Protein cereblon/CREB-binding protein. The experiment is described as follows: Protac activity at CRBN/CBP in human MM1.S cells at 5 uM after 16 hrs by Western blotting analysis. In kind it is cell-based.
Experiment [10] shares this target. The experiment in a line: Protac activity at CRBN/CBP in human LP-1 cells at 5 uM after 16 hrs by Western blotting analysis. In kind it is cell-based.
For experiment [11], the target named is T2, Protein cereblon/Histone acetyltransferase p300 (Homo sapiens). The experiment in a line: Protac activity at CRBN/EP300 in human MM1.S cells at 5 uM after 16 hrs by Western blotting analysis. In kind it is cell-based.
For experiment [12] the target is unchanged. The experiment is described as follows: Protac activity at CRBN/EP300 in human LP-1 cells at 5 uM after 16 hrs by Western blotting analysis. In kind it is cell-based.
Experiment [13] concerns the target T1, Protein cereblon/CREB-binding protein. The experiment in a line: Protac activity at CRBN/CBP degradation in human LP-1 cells at 5 uM preincubated with pomalidomide for 1 hr followed by compound addition and measured after 16 hrs by Western blotting analysis. In kind it is cell-based.
The target is the same in experiment [14]. The experiment in a line: Protac activity at CRBN/CBP degradation in human LP-1 cells at 5 uM preincubated with CPI-1612 for 1 hr followed by compound addition and measured after 16 hrs by Western blotting analysis. In kind it is cell-based.
Experiment [15] has the same target. The experiment is described as follows: Protac activity at CRBN/CBP degradation in human LP-1 cells at 5 uM preincubated with MG-132 for 1 hr followed by compound addition and measured after 16 hrs by Western blotting analysis. In kind it is cell-based.
The target is the same in experiment [16]. The experiment in a line: Protac activity at CRBN/CBP in human LP-1 cells after 16 hrs by Western blotting analysis. In kind it is cell-based.
Experiment [17] shares this target. The experiment in a line: Protac activity at CRBN/CBP in human LP-1 cells at 5 uM after 8 to 48 hrs by Western blotting analysis. In kind it is cell-based. The conditions noted are these: time 8-48 hrs.
In the next experiment the test system is CCRF-CEM. The experiment in a line: Antiproliferative activity against human CCRF-CEM cells. In kind it is functional, cell-based.
The next experiment concerns HL-60(TB). The experiment is described as follows: Antiproliferative activity against human HL-60(TB) cells. In kind it is functional, cell-based.
The test system of the next experiment is K562. The experiment in a line: Antiproliferative activity against human K562 cells. In kind it is functional, cell-based.
The next experiment concerns MOLT-4. The experiment in a line: Antiproliferative activity against human MOLT-4 cells. In kind it is functional, cell-based.
For the next experiment, the system named is RPMI-8226. The experiment in a line: Antiproliferative activity against human RPMI-8226 cells. In kind it is functional, cell-based.
For a further experiment, the system named is SR. The experiment is described as follows: Antiproliferative activity against human SR cells. In kind it is functional, cell-based.

Sequence of von Hippel-Lindau disease tumor suppressor/CREB-binding protein (Homo sapiens) (P40337 whole entry, looked up): as the sequence (P40337 whole entry, looked up) above
Sequence of von Hippel-Lindau disease tumor suppressor/CREB-binding protein (Homo sapiens) (Q92793 whole entry, looked up): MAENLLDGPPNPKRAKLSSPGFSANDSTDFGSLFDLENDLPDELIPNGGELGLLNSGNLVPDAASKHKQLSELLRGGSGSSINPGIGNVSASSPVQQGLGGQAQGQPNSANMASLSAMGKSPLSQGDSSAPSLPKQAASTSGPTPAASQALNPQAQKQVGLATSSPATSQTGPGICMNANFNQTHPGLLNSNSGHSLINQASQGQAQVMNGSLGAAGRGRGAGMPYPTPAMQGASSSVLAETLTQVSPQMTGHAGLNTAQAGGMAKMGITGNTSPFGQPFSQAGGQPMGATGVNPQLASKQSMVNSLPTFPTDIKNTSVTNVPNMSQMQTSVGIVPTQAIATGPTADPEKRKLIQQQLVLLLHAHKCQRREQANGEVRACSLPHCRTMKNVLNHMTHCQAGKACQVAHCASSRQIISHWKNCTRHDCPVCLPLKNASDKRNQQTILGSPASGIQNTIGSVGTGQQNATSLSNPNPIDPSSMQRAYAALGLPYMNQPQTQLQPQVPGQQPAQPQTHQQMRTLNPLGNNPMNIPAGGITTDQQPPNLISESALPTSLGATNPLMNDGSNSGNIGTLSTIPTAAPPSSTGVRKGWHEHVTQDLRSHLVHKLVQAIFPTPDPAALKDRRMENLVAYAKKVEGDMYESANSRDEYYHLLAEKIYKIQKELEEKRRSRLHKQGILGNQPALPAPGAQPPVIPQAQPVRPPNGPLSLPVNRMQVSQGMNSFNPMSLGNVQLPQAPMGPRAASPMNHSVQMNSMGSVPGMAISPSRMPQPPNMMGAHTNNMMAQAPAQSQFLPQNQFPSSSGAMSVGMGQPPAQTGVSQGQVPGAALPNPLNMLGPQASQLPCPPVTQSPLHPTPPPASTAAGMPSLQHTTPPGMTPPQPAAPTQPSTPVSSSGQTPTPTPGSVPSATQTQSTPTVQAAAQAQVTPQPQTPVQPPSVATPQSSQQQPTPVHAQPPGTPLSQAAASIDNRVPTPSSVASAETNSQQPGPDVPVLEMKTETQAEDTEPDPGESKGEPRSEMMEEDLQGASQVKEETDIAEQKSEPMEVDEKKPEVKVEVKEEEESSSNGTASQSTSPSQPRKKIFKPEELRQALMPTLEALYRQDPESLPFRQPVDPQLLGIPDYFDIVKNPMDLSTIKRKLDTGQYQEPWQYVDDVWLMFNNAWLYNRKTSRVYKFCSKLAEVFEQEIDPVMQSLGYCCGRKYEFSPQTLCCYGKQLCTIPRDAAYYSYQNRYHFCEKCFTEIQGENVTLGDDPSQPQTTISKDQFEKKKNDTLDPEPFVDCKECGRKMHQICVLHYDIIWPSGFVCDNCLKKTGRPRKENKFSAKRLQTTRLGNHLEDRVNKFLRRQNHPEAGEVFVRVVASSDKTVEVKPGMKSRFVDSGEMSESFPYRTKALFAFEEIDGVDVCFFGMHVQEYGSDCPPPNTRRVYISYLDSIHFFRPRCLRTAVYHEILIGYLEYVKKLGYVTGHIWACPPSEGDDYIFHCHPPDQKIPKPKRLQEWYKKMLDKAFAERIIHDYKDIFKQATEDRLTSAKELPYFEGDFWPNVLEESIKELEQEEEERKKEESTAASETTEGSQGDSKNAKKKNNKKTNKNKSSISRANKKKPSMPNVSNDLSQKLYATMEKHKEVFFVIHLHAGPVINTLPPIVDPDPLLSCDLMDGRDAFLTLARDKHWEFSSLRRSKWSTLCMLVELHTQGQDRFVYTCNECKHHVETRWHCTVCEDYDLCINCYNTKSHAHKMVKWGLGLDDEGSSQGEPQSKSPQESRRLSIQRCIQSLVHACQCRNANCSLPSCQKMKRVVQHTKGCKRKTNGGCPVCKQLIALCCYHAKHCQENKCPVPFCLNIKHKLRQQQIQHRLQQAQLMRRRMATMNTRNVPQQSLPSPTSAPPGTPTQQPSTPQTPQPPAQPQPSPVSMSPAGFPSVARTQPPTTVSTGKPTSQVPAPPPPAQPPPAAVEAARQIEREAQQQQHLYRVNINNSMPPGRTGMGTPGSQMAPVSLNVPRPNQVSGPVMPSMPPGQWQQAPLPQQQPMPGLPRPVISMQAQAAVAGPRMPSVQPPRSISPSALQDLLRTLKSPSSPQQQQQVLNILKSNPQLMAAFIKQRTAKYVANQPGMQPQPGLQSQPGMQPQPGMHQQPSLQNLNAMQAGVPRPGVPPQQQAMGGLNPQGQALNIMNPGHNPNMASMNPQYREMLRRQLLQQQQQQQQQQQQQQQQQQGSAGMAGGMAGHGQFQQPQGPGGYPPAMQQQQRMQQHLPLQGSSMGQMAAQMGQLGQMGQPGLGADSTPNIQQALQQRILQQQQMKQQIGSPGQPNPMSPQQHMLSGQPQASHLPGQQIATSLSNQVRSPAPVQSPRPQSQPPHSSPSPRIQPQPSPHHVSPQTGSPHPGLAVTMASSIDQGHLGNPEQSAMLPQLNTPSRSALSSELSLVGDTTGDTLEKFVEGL
Sequence of CREB-binding protein (Q92793 whole entry): as the sequence (Q92793 whole entry, looked up) above

As a reminder, the GI50 is the concentration at which growth is held to half of that of the control. As for `Cc1ncsc1-c1ccc(CNC(=O)[C@H]2C[C@H](O)CN2C(=O)[C@H](NC(=O)CCOCCOCCOCCNC(=O)CCCn2cc(-c3ccc(NC(=O)[C@H](NC[C@@H](C)c4ccc(C#N)cc4)c4ccccc4)nc3)cn2)C(C)(C)C)cc1`, the results for the Activity in experiment [1] and in experiment [2] were > 95% and 89%, respectively. Further, the GI50 in the experiment with LP-1 [3] turned out to be 2200 nM.
For `C[C@H](CN[C@@H](C(=O)Nc1ccc(-c2cnn(CCCC(=O)NCCOCCOCCOCCOCCOCCOCCNc3cccc4c3C(=O)N(C3CCC(=O)N(C)C3=O)C4=O)c2)cn1)c1ccccc1)c1ccc(C#N)cc1` (some centres not stated), the outcome in experiment [4] was inactive.
For `CN[C@@H](C)C(=O)N[C@H](C(=O)N1C[C@@H](NC(=O)CCOCCOCCNC(=O)CCCn2cc(-c3ccc(NC(=O)[C@H](NC[C@@H](C)c4ccc(C#N)cc4)c4ccccc4)nc3)cn2)C[C@H]1C(=O)Nc1c(F)cccc1F)C(C)(C)C`, in the experiment on LP-1 [3], the GI50 was > 10000 nM. The Activity is 87% in the experiment on LP-1 [5] and 93% in the experiment with LP-1 [6].
The IC50 is the concentration that inhibits the measured activity by half. The low end stands for greater potency in that assay, the high end for weaker potency in that assay. `C[C@H](CN[C@@H](C(=O)Nc1ccc(-c2cnn(C)c2)cn1)c1ccccc1)c1ccc(C#N)cc1` gave a half-maximal inhibitory concentration (IC50) on CREB-binding protein of 116 nM. The concentration for 50% growth inhibition (GI50) with LP-1 [3] is 5 nM.
For `Cc1ncsc1-c1ccc(CNC(=O)[C@@H]2C[C@@H](O)CN2C(=O)[C@@H](NC(=O)CCCCCCCNC(=O)CCCn2cc(-c3ccc(NC(=O)[C@H](NC[C@@H](C)c4ccc(C#N)cc4)c4ccccc4)nc3)cn2)C(C)(C)C)cc1`, the Activity in experiment [1] and in experiment [2] was > 95% each time. Moreover, the concentration for 50% growth inhibition (GI50) in the experiment with LP-1 [3] was 4700 nM.
As for `C[C@H](CN[C@@H](C(=O)Nc1ccc(-c2cnn(CCCC(=O)NCCCCCCCCNc3cccc4c3C(=O)N(C3CCC(=O)NC3=O)C4=O)c2)cn1)c1ccccc1)c1ccc(C#N)cc1` (some centres not stated), in the experiment on LP-1 [3], the GI50 is 470 nM. Also, the results for the Activity in [7] and in experiment [8] were 87% and 79%, respectively.
Consider `C[C@H](CN[C@@H](C(=O)Nc1ccc(-c2cnn(CCCC(=O)NCCOCCOCCOCCOCCNc3cccc4c3C(=O)N(C3CCC(=O)NC3=O)C4=O)c2)cn1)c1ccccc1)c1ccc(C#N)cc1` (some centres not stated), for which the outcome in experiment [7] and in [8] was Active.
For the compound `CN[C@@H](C)C(=O)N[C@H](C(=O)N1C[C@@H](NC(=O)CCOCCOCCOCCNC(=O)CCCn2cc(-c3ccc(NC(=O)[C@H](NC[C@@H](C)c4ccc(C#N)cc4)c4ccccc4)nc3)cn2)C[C@H]1C(=O)Nc1c(F)cccc1F)C(C)(C)C`, in the experiment with LP-1 [3], the GI50 amounted to 500 nM. Moreover, the Activity in the experiment with LP-1 [5] and in the experiment with LP-1 [6] was > 95% in each case.
Regarding `CCOCCNC(=O)CCn1cc(-c2ccc(NC(=O)C(NCC(C)c3ccc(C#N)cc3)c3ccccc3)nc2)cn1` (configuration not stated), on CREB-binding protein, the IC50 turned out to be 1870 nM.
Turning to `C[C@H](CN[C@@H](C(=O)Nc1ccc(-c2cnn(CCCC(=O)NCCOCCOCCOCCOCCOCCNc3cccc4c3C(=O)N(C3CCC(=O)NC3=O)C4=O)c2)cn1)c1ccccc1)c1ccc(C#N)cc1` (some centres not stated), the result in [7] and in [8] was Active.
As for `C[C@H](CN[C@@H](C(=O)Nc1ccc(-c2cnn(CCCC(=O)NCCCCCCCCNc3ccc4c(c3)C(=O)N(C3CCC(=O)NC3=O)C4=O)c2)cn1)c1ccccc1)c1ccc(C#N)cc1` (some centres not stated), the GI50 in the experiment on LP-1 [3] turned out to be 260 nM. The Activity in [7] was > 95%; in [8] it was 95%.
Take `Nc1cccc2c1C(=O)N(C1CCC(=O)NC1=O)C2=O` (configuration not stated) [POMALIDOMIDE]: the GI50 with LP-1 [3] is > 10000 nM.
Turning to `C[C@H](CN[C@@H](C(=O)Nc1ccc(-c2cnn(CCCC(=O)NCCOCCOCCOCCOCCOCCOCCOCCNc3cccc4c3C(=O)N(C3CCC(=O)NC3=O)C4=O)c2)cn1)c1ccccc1)c1ccc(C#N)cc1` (some centres not stated), the result in [7] and in experiment [8] was Active.
In the case of `C[C@H](N(Cc1ccc(F)cc1)C(=O)CN1C(=O)O[C@@]2(CCc3cc(NC(=O)CCCCCCCCCCCNc4ccc5c(c4)C(=O)N(C4CCC(=O)NC4=O)C5=O)ccc32)C1=O)C(F)(F)F` (some centres not stated), the outcome in [9], in [10], in [11] and in experiment [12] was inactive.
Consider `CCOCCNC(=O)CCCn1cc(-c2ccc(NC(=O)C(NCC(C)c3ccc(C#N)cc3)c3ccccc3)nc2)cn1` (configuration not stated), for which the IC50 on CREB-binding protein worked out at 1010 nM.
What is called EC50 is the concentration at which the effect is half-maximal. Regarding `C[C@H](CN[C@@H](C(=O)Nc1ccc(-c2cnn(CCCC(=O)NCCOCCOCCOCCOCCOCCOCCNc3cccc4c3C(=O)N(C3CCC(=O)NC3=O)C4=O)c2)cn1)c1ccccc1)c1ccc(C#N)cc1` (some centres not stated), the result in experiment [7], in [8], in experiment [13], in [14], in experiment [15] and in [17] was Active. Moreover, the outcome (in [9]; in the experiment with CCRF-CEM; with HL-60(TB); in the experiment on K562; in the experiment with MOLT-4; with RPMI-8226) was Active. For the same compound, the result with SR was Active. For the same compound, the EC50 was 1200 nM in [4] and 1300 nM in [16].
For the compound `C[C@H](CN[C@@H](C(=O)Nc1ccc(-c2cnn(CCCC(=O)NCCOCCOCCNc3cccc4c3C(=O)N(C3CCC(=O)NC3=O)C4=O)c2)cn1)c1ccccc1)c1ccc(C#N)cc1` (some centres not stated), in the experiment with LP-1 [3], the GI50 was found to be 330 nM. Moreover, the Activity in [7] was > 95%; in [8], 79%.
As to `Cc1ncsc1-c1ccc(CNC(=O)[C@@H]2C[C@@H](O)CN2C(=O)[C@@H](NC(=O)COCCOCCNC(=O)CCCn2cc(-c3ccc(NC(=O)[C@H](NC[C@@H](C)c4ccc(C#N)cc4)c4ccccc4)nc3)cn2)C(C)(C)C)cc1`, the Activity in experiment [1] and in experiment [2] was > 95% throughout. Also, in the experiment on LP-1 [3], the GI50 came to 1000 nM.
As to `COCCNC(=O)CCCCn1cc(-c2ccc(NC(=O)C(NCC(C)c3ccc(C#N)cc3)c3ccccc3)nc2)cn1` (configuration not stated), the IC50 on CREB-binding protein turned out to be 819 nM.
On to `C[C@H](CN[C@@H](C(=O)Nc1ccc(-c2cnn(CCCC(=O)NCCOCCOCCOCCNc3cccc4c3C(=O)N(C3CCC(=O)NC3=O)C4=O)c2)cn1)c1ccccc1)c1ccc(C#N)cc1` (some centres not stated), for which the GI50 with LP-1 [3] was 500 nM. In addition, the Activity in experiment [7] was > 95%; in experiment [8] it was 76%.
In the case of `CN[C@@H](C)C(=O)N[C@H](C(=O)N1C[C@@H](NC(=O)CCCCCCCNC(=O)CCCn2cc(-c3ccc(NC(=O)[C@H](NC[C@@H](C)c4ccc(C#N)cc4)c4ccccc4)nc3)cn2)C[C@H]1C(=O)Nc1c(F)cccc1F)C(C)(C)C`, in the experiment on LP-1 [3], the concentration for 50% growth inhibition (GI50) is 2300 nM. Also, the Activity with LP-1 [5] and with LP-1 [6] was > 95% each time.
